Data on one molecule can be found in article PMC8716817 (Frontiers in Pharmacology, 2021).

In one experiment the target is T1, NaV1.7 (Rattus norvegicus, UniProt O08562).
T1 construct: gene Scn9a
The experiment can be described thus: whole-cell patch clamp, stable NaV1.[…] HEK cells (vincristine pre-incubated). It is filed as cell-based.

The next experiment has as its target T2, NaV1.8 (Rattus norvegicus, UniProt Q62968).
T2 construct: gene Scn10a
It is filed as cell-based.

T2 sequence (Q62968 whole entry): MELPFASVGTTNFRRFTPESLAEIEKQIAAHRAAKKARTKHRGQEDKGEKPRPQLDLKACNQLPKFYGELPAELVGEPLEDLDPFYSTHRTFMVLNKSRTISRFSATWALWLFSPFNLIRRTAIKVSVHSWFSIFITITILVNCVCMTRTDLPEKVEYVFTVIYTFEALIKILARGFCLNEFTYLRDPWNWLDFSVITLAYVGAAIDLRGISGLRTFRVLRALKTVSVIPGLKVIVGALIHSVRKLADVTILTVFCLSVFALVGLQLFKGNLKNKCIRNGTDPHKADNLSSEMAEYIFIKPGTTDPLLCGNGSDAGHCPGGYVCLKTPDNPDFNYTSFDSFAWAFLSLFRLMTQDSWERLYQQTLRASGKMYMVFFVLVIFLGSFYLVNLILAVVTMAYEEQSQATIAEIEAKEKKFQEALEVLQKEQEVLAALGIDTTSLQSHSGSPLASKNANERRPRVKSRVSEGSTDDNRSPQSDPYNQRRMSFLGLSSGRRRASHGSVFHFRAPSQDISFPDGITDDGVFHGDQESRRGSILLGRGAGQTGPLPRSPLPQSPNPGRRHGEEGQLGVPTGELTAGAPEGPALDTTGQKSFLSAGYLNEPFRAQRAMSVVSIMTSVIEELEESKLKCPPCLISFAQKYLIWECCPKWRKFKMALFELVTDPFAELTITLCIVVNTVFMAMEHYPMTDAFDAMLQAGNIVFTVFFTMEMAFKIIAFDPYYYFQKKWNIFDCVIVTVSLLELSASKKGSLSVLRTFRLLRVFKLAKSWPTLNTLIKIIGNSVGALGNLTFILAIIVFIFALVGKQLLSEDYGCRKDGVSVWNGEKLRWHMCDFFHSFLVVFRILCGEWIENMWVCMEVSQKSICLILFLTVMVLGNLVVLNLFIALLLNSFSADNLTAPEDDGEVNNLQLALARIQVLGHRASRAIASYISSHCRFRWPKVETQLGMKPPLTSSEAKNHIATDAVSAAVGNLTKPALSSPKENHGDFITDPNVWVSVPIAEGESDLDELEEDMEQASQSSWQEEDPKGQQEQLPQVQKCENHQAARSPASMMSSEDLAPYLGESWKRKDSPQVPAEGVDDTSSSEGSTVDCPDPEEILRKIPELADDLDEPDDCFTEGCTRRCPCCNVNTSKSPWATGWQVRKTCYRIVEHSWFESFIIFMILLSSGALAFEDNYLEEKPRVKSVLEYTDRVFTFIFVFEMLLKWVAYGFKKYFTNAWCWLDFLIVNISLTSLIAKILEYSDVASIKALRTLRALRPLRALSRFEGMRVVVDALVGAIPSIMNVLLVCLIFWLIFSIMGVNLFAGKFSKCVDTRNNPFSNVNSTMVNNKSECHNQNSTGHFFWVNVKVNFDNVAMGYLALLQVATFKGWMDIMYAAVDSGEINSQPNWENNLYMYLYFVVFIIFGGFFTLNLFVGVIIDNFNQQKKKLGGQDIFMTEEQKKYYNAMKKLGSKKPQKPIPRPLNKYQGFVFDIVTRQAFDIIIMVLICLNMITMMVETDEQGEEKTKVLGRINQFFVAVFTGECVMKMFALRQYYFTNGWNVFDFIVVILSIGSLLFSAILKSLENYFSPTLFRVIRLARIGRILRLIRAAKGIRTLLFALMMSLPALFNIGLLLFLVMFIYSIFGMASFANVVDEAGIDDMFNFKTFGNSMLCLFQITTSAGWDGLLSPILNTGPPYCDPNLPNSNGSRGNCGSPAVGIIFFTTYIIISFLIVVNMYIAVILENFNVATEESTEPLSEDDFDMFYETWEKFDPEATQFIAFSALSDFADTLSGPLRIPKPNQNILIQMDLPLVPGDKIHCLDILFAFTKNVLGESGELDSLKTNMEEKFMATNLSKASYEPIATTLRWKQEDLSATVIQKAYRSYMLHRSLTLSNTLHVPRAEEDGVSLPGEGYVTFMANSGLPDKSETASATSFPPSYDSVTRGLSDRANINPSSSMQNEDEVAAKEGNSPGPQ
T1 sequence (O08562 whole entry): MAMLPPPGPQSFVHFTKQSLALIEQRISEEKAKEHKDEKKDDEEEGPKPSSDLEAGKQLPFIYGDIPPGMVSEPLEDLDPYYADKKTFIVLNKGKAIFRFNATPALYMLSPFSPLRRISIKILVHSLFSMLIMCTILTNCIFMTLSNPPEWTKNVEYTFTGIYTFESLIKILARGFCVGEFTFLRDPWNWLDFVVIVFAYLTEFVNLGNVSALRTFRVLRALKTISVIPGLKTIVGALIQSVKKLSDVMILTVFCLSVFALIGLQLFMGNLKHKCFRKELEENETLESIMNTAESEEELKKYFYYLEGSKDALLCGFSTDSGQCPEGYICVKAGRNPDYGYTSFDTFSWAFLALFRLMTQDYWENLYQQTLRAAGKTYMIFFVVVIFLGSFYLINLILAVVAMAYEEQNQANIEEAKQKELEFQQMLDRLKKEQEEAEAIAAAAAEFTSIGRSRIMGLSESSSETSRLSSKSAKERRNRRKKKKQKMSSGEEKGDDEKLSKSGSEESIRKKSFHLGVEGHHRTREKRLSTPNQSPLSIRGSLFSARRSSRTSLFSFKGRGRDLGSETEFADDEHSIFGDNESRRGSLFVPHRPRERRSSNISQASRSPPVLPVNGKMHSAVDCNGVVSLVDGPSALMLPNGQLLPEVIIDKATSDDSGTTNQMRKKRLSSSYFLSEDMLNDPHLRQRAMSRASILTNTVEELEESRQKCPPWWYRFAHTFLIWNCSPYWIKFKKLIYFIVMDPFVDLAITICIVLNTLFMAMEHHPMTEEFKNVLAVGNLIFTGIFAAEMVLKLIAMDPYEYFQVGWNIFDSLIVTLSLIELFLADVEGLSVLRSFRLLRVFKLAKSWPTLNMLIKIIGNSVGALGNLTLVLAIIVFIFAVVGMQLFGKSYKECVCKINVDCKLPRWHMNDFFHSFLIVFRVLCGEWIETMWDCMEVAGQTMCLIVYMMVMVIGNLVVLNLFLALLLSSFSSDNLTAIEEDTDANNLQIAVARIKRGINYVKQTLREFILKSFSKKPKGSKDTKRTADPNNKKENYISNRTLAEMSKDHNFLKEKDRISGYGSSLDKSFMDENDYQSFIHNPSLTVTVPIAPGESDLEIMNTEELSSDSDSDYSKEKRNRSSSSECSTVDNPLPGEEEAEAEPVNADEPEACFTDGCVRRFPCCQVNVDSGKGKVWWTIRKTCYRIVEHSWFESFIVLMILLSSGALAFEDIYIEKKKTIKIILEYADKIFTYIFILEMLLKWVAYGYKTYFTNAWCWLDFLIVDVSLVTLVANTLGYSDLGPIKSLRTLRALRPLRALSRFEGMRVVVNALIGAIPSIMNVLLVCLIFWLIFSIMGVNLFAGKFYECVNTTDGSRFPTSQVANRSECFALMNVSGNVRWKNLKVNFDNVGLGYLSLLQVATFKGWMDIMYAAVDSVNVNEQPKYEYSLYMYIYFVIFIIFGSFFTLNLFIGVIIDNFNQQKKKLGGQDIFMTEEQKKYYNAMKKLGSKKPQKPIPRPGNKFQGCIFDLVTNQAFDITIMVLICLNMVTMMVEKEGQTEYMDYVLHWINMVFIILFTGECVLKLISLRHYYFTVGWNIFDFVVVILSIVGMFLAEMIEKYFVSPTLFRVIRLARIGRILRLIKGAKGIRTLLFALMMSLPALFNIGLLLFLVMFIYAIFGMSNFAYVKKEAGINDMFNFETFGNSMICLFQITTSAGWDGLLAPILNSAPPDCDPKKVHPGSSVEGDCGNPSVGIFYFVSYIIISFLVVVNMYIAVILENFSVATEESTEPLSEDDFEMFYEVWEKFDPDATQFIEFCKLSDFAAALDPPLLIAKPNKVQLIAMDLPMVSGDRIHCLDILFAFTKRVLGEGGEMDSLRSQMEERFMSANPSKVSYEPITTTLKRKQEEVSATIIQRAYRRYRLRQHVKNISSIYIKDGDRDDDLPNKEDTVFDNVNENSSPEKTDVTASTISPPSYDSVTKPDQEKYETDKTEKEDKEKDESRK

By IC50 is commonly meant the midpoint of a concentration-inhibition curve. Low values mean greater potency, high ones weaker potency. For the molecule `OCc1ccc(O[C@@H]2O[C@H](CO)[C@@H](O)[C@H](O)[C@H]2O)cc1` [GAS, Gastrodin], the results for the IC50 at NaV1.7 and against NaV1.8 were 25.9 ± 0.98 µM and 67.5 ± 20.7 µM, respectively.
